According to patent US20050227296A1, “Method for indentifying integrin antagonists” (The General Hospital Corporation, a Massachusetts …, priority 1988, published 2005):

Tests used:
[1] = test system: biotinylated NIF binding to human neutrophils; experiment: Inhibition of biotinylated NIF binding to neutrophils; details: dose dependent
Method: 100 μg of rNIF were labeled with sulfo-NHS-Biotin as described above. rNIF binding to resting or stimulated human neutrophils (pretreated with 10^−6 M f-met-leu-phe, for 15 minutes at 37° C., then washed) was measured. Increasing amounts of biotinylated rNIF in the absence or presence of 100-fold molar excess of unlabeled rNIF were incubated on ice for one hour with 1×10^6 neutrophils in VBSG^++ in a total volume of […]. Cells were then washed and incubated with phycoerythrin-coupled avidin (Sigma Chemical Co.) under similar conditions, washed again, fixed in 1% paraformaldehyde in PBS, and analyzed using FACScan (Becton Dickinson Co., Mountain View, Calif.). Mean channel fluorescence for each sample was then expressed as a function of the amount of biotinylated rNIF used. Background binding of phycoerythrin-streptavidin alone to neutrophils was subtracted (2.8 fluorescent units). Specific binding was obtained by […], and the values plotted according to Scatchard (Ann. N.Y. Acad. Sci. 51:660, 1949). To determine the effect of unlabeled fluid-phase-r11bA or GST on rNIF binding to neutrophils, each was preincubated at varying concentrations with biotinylated rNIF (20 ng/ml, final concentration) for 15 minutes on ice before addition of the mixture to neutrophils. The effect of mAbs on biotinylated NIF binding to neutrophils was assessed by preincubating the neutrophils with 100 μg/ml of each mAb at 4° C. for 15 minutes before addition of biotinylated NIF (20 ng/ml). The incubation then continued for one hour, followed by processing of cells for FACS analysis as described below.

[2] = molecular target: T1, EAiC3b (erythrocytes coated with iC3b) (Homo sapiens, UniProt P01024); experiment: Erythrocyte binding assay, EAiC3b on immobilized proteins or peptides; details: 37° C., divalent cations
T1 construct: EAiC3b (erythrocytes coated with iC3b) were generated by treating EAC3b with purified human factors H and I; tissue Sigma Chemical Co. (C5-deficient human serum); host or cells: human serum C3 deposited on IgM-coated erythrocytes
T1 sequence (P01024 749-1303 limits assumed): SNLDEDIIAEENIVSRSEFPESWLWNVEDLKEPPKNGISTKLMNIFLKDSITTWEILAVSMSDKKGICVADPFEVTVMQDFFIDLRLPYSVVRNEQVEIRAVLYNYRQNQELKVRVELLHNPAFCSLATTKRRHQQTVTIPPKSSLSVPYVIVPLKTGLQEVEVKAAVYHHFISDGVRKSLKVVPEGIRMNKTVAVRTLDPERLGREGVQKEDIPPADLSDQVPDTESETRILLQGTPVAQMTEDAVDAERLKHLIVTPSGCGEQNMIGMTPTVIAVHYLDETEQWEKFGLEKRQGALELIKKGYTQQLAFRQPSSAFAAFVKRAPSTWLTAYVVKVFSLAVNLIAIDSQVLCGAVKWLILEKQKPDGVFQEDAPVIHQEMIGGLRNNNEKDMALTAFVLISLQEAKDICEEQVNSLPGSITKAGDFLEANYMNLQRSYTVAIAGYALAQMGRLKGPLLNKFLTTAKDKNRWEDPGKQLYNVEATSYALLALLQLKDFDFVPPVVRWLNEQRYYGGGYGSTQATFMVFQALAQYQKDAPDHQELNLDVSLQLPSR
T1 sequence (P01024 23-667 partner limits assumed): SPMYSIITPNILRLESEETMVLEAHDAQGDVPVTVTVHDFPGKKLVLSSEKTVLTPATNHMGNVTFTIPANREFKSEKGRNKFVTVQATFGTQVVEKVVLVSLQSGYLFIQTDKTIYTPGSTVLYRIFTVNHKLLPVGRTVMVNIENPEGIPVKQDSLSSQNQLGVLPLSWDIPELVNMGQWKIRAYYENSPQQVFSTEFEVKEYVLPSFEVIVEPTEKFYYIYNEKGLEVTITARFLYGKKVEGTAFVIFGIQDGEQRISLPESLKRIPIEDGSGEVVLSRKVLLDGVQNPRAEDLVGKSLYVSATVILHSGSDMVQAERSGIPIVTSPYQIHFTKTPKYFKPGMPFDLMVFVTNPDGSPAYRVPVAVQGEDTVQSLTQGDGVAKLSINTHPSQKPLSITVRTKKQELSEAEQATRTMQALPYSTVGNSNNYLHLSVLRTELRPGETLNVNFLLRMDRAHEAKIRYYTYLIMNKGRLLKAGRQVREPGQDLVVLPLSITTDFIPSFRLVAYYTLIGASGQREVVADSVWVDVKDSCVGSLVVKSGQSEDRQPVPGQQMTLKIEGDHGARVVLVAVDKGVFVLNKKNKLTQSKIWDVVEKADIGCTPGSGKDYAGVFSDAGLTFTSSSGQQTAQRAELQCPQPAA
T1 sequence (P01024 1321-1663 partner limits assumed): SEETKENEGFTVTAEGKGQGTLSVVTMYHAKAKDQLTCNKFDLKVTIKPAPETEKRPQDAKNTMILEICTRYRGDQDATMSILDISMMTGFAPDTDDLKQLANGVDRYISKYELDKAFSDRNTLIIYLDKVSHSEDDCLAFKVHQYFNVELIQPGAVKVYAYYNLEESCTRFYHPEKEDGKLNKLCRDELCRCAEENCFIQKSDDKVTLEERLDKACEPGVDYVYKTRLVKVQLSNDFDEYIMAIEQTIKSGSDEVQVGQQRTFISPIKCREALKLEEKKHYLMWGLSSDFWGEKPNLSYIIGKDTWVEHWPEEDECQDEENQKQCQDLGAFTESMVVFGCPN
Method: Erythrocytes (E) coated with rabbit anti-E IgM (EA) or C3b (EAC3b) were prepared as described by Dana et al. (J. Immunol. 73:153, 1984). EAiC3b (erythrocytes coated with iC3b) were generated by treating EAC3b with purified human factors H and I, or alternatively prepared from EA using C5-deficient human serum (Sigma Chemical Co., St. Louis, Mo.). EAiC3b cells were washed and stored in isotonic veronal-buffered saline (VBS^2+), pH 7.4, containing 0.15 mM calcium-1 mM magnesium (MgCl2+CaCl2) and 1 mg/ml Soybean Trypsin Inhibitor (STI; Worthington Biochemical Co., Freehold, N.J.) at 1.5×10^8 cells/ml. EA, EAC3b or EAiC3b were labeled with 5-(and-6)-carboxy fluorescein (Molecular Probes, Eugene, Oreg.) as described by Michishita et al. (Cell 72:857, 1993).
Immobilization of recombinant proteins and peptides: Purified recombinant A-domain was added to Immulon-2 96-well microtiter plates (Dynatech) overnight. Wells were then washed once with phosphate-buffered-saline, pH 7.4 without metals, and blocked with 1% BSA at room temperature (RT) for one hour, followed by two washings with buffer A (composed of 60% GVBS:VBS^2+ mixed in a 1:3 ratio; Arnaout et al., in Complement Receptor Type 3 at 602-615, Academic Press, FL) containing 1 mM MnCl2 or MgCl2+CaCl2. All the peptides were stocked at 1 mg/ml in water and similarly adsorbed to Immulon-2 96-well plates. Binding of the anti-CD11b mabs to the coated rA-domain was measured by ELISA and read using a plate reader (Molecular Dynamics).
Erythrocyte binding assays: Fluoresceinated EAiC3b, EAC3b or EA were resuspended to 1.5×10^8/ml in buffer A, and added […] to wells containing immobilized proteins or peptides in a total volume of […]. The plates were then briefly centrifuged to settle the erythrocytes, and allowed to incubate at 37° C. for 15 minutes in a humidified incubator with 5% CO2. For the inhibition studies, E were preincubated with each recombinant protein or pure peptide in the presence of 2% BSA for 5 minutes at RT and added to wells coated with immobilized protein or peptide without washing, unless otherwise indicated. At the end of the binding reactions, wells were washed, examined briefly by light microscopy then solubilized with 1% SDS-0.2 N NaOH. Fluorescence was quantified (excitatory wavelength, 490 nm, emission wavelength, 510 nm) using a SLM 8000 fluorometer (SLM Instruments, Urbana, Ill.). In experiments where the effects of individual divalent cations were measured, Ca^2+ and Mg^2+ were replaced with metal-free buffers or with buffers containing each cation at […], unless otherwise indicated. The effect of temperature was evaluated in the presence of 1 mM MnCl2 at 37° C. and at 4° C.

Substance: GST: glutathione-S-transferase, fusion partner of r11bA, used as control [reference compound]
- effect of fluid-phase protein on biotinylated rNIF binding to human neutrophils [1]: not
- direct binding of EAiC3b to immobilized protein or peptide [2]: did not bind
